Results: patent US6281214A, “Biphenyl derivatives” (Eisai Co., Ltd, priority 1994, dated 2001)

Assays:
Set-up in all cases: species or system SD rats
dopamine D2 receptor = target: T1, dopamine D2 receptor (Rattus norvegicus, UniProt P61169); test: dopamine D2 receptor binding test ([3H] Spiperone Binding Test); details: 1 nM [3H] Spiperone, rat corpus striatum, room temperature, 60 minutes; read-out: Ki value, dopamine D2 receptor
T1 construct: the receptor fraction prepared from the corpus striatum was molten and suspended; from tissue; host or cells: corpus striatum of SD rats (membrane fraction)
T1 sequence (P61169 whole entry): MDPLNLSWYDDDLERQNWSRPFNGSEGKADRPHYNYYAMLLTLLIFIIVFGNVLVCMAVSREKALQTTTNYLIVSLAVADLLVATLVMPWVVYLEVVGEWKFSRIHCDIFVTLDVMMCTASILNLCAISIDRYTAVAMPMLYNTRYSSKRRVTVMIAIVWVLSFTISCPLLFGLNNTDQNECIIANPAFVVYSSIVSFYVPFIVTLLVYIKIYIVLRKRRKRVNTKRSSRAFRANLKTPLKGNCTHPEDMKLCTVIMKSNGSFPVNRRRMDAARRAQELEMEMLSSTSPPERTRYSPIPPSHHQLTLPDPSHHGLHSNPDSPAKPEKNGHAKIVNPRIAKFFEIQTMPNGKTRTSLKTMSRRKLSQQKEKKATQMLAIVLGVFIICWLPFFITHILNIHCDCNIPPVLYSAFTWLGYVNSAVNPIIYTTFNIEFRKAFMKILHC
How it was run: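 Rat (SD, 6–8 weeks) corpus striatum membranes in 50 mM Krebs-Tris pH 7.4 were incubated with 1 nM [3H]spiperone at room temperature for 60 minutes, with nonspecific binding defined by excess spiperone. IC50 came from probit analysis; Ki was derived using radioligand concentration and Scatchard Kd.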

serotonin S2 receptor = target: T2, serotonin S2 receptor (Rattus norvegicus, UniProt P14842); test: serotonin S2 receptor binding test ([3H] Ketanserin Binding Test); details: 1 nM [3H] Ketanserin, rat cortex, 37° C., 15 minutes
T2 construct: The receptor fraction prepared from the cortex was molten and suspended; from tissue; host or cells: cerebral cortex of SD rats (membrane fraction)
T2 sequence (P14842 whole entry): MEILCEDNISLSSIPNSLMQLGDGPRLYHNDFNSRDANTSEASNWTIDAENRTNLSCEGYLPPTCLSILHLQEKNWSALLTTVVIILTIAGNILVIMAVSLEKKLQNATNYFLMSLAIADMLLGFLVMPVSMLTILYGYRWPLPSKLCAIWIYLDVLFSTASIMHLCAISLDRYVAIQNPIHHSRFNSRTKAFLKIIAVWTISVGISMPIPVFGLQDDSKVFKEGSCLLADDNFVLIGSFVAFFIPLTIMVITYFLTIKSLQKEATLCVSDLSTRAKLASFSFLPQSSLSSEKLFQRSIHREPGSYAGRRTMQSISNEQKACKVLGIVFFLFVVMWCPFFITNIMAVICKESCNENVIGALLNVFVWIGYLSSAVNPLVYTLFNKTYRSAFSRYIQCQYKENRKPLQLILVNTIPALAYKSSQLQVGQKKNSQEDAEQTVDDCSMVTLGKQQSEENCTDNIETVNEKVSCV
How it was run: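 Rat (SD, 6–8 weeks) cortical membranes in 50 mM Tris-HCl pH 7.4 were incubated with 1 nM [3H]ketanserin for 15 min at 37 °C, then filtered and counted. Nonspecific binding was defined with methysergide. IC50 was obtained by probit analysis and converted to Ki using the Scatchard-derived Kd.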

adrenergic α1 receptor = adrenergic α1 receptor binding test ([3H] Prazosin Binding Test); details: 1 nM [3H] Prazosin, rat cortex, room temperature, 60 minutes
How it was run: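 Rat (SD, 6-8 weeks) cerebral cortex membranes in 50 mM Tris-HCl pH 7.4 incubated with 1 nM [3H]prazosin for 60 min at room temperature; nonspecific binding defined with phentolamine. IC50 by probit method, converted to Ki using radioligand concentration and Scatchard-derived Kd.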

| Compound | Ki (dopamine D2 receptor) | Ki (serotonin S2 receptor) | Ki (adrenergic α1 receptor) |
| --- | --- | --- | --- |
| CCCOCc1cc(N2CCN(CC)CC2)cc(-c2ccccc2C)c1Cl [Example 168, 1-Ethyl-4-[3-(2-tolyl)-4-chloro-5-propoxymethyl]phenylpiperazine] | 31.9 nM | 180 nM | > 1000 nM |
| CCN1CCN(c2cc(COCc3ccncc3)c(Cl)c(-c3ccccc3C)c2)CC1 [Example 169, 1-Ethyl-4-[3-(2-tolyl)-4-chloro-5-(4-pyridyl)methoxymethyl]phenylpiperazine] | 41.8 nM | 108 nM | > 1000 nM |
| CCCS(=O)(=O)c1cc(N2CCN(CC)CC2)cc(-c2ccccc2)c1OC [Example 170, 1-Ethyl-4-(3-phenyl-4-methoxy-5-propanesulfonyl)phenylpiperazine] | 34.2 nM | 2.77 nM | > 1000 nM |
| CCCCS(=O)(=O)c1cc(N2CCN(CC)CC2)cc(-c2ccccc2)c1OC [Example 171, 1-Ethyl-4-(3-phenyl-4-methoxy-5-butanesulfonyl)phenylpiperazine] | 86.7 nM | 2.74 nM | > 1000 nM |
| CCN1CCN(c2cc(-c3ccccc3)c(OC)c(S(=O)(=O)CCF)c2)CC1 [Example 172, 1-Ethyl-4-[3-phenyl-4-methoxy-5-(2-fluoroethane)sulfonyl]phenylpiperazine] | 48.9 nM | 30.3 nM | > 1000 nM |
| CCOCc1cc(N2CCN(CC)CC2)cc(-c2ccccc2C)c1Cl [Example 173, 1-Ethyl-4-[3-(2-tolyl)-4-chloro-5-ethoxymethyl]phenylpiperazine] | 19.2 nM | > 1000 nM | > 1000 nM |
| CCCC(O)c1cc(N2CCN(C)CC2)cc(-c2ccccc2C)c1Cl (stereo not drawn) [Example 174] | 31.8 nM | 48.7 nM | > 1000 nM |
| C=CCOCc1cc(N2CCN(CC)CC2)cc(-c2ccccc2C)c1Cl [Example 175, 1-Ethyl-4-[3-(2-tolyl)-4-chloro-5-allyloxymethyl]phenylpiperazine] | 29.3 nM | > 100 nM | > 1000 nM |
| CCN1CCN(c2cc(COCC3CC3)c(Cl)c(-c3ccccc3C)c2)CC1 [Example 176, 1-Ethyl-4-[3-(2-tolyl)-4-chloro-5-cyclopropylmethoxymethyl]phenylpiperazine] | > 100 nM | 178 nM | > 1000 nM |
| CCN1CCN(c2cc(-c3ccccc3C)c(Cl)c(N3CCCC3)c2)CC1 [Example 177] | > 100 nM | > 100 nM | > 1000 nM |
| CCCC(F)c1cc(N2CCN(C)CC2)cc(-c2ccccc2Cl)c1Cl (stereo not drawn) [Example 178, 1-Methyl-4-[3-(2-chlorophenyl)-4-chloro-5-(1-fluorobutyl)]phenylpiperazine] | 7.3 nM | 12.2 nM | > 1000 nM |
| CN1CCN(c2cc(NS(=O)(=O)Cc3ccccc3)c(Cl)c(-c3ccccc3Cl)c2)CC1 [Example 179, 1-Methyl-4-[3-(2-chlorophenyl)-4-chloro-5-benzylsulfonylamino]phenylpiperazine] | 6.08 nM | 6.54 nM | 72.7 nM |
| CCCS(=O)(=O)c1cc(N2CCN(C)CC2)cc(-c2ccccc2Cl)c1Cl [Example 180, 1-Methyl-4-[3-(2-chlorophenyl)-4-chloro-5-propanesulfonyl]phenylpiperazine] | 13 nM | 3.48 nM | > 100 nM |
| CCN1CCN(c2cc(-c3ccccc3)c(OC)c(S(=O)(=O)CCCOc3ccc(F)cc3)c2)CC1 [Example 181, 1-Ethyl-4-{3-phenyl-4-methoxy-5-[3-(4-fluorophenoxy)propane]sulfonyl}phenylpiperazine] | 26.2 nM | 0.5 nM | > 100 nM |
| CC(C)S(=O)(=O)Nc1cc(N2CCN(C)CC2)cc(-c2ccccc2Cl)c1Cl [Example 182, 1-Methyl-4-(3-(2-chlorophenyl)-4-chloro-5-isopropylsulfonylamino]phenylpiperazine] | 2.34 nM | 145 nM | 186 nM |
| CCN1CCN(c2cc(-c3ccccc3)c(OC)c(S(=O)(=O)CCC#N)c2)CC1 [Example 183, 1-Ethyl-4-[3-phenyl-4-methoxy-5-(2-cycanoethylsulfonyl)]phenylpiperazine] | 165 nM | 81.2 nM | > 1000 nM |
| CCCS(=O)(=O)Nc1cc(N2CCN(CC)CC2)cc(-c2ccccc2)c1Cl [Example 184, 1-Ethyl-4-(3-phenyl-4-chloro-5-propanesulfonylamino)phenylpiperazine] | 0.17 nM | 2.09 nM | 4.52 nM |
